Laboratory results published in ChEMBL document CHEMBL3727348, “3-(aryl or heteroaryl) methyleneindolin-2-one derivatives as inhibitors of cancer stem cell pathway kinases for the treatment of cancer” (2014).
Calls of active or inactive are those of the source. No cut-off for these calls is given here.

What was measured:
FaDu [1] = assay: Cytotoxic activity against human FADU cancer stem cells incubated for 72 hrs by Cell-titer-Glo luminescence assay; type: functional, cell-based
FaDu [2] = assay: Cytotoxic activity against human FADU bulk cells incubated for 72 hrs by Cell-titer-Glo luminescence assay; type: functional, cell-based
A549 [3] = assay: Cytotoxic activity against human A549 cancer stem cells incubated for 72 hrs by Cell-titer-Glo luminescence assay; type: functional, cell-based; settings: A549, 72 h
[4] = molecular target: Serine/threonine-protein kinase RIO2 (Homo sapiens) (UniProt Q9BVS4); assay: Inhibition of N-terminal GST-fused full length human recombinant RIOK2 expressed in baculovirus Sf21 cells assessed as reduction in kinase auto-phosphorylation at 10 uM in presence of ATP incubated for 1 hr by ELISA method
Chain of Serine/threonine-protein kinase RIO2 (Homo sapiens) (Q9BVS4 whole entry, looked up, the tested form may be a part): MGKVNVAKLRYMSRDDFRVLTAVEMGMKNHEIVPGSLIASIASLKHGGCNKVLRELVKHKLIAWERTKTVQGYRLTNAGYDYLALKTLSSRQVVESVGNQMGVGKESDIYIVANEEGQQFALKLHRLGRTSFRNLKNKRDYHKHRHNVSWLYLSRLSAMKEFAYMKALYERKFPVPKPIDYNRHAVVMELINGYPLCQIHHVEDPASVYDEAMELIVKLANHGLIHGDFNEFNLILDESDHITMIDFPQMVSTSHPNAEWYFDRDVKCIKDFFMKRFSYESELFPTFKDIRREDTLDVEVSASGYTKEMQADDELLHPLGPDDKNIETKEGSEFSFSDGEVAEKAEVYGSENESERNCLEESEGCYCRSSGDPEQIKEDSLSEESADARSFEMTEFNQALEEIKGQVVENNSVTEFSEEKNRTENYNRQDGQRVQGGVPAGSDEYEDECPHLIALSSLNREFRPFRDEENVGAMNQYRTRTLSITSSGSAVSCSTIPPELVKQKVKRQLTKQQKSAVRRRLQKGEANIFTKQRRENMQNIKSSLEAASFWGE

A549 [5] = assay: Cytotoxic activity against human A549 bulk cells incubated for 72 hrs by Cell-titer-Glo luminescence assay; type: functional, cell-based; settings: A549, 72 h
[6] = molecular target: Serine/threonine-protein kinase RIO2 (Homo sapiens) (UniProt Q9BVS4); assay: Inhibition of N-terminal GST-fused full length human recombinant RIOK2 expressed in baculovirus Sf21 cells assessed as reduction in kinase auto-phosphorylation at 1 uM in presence of ATP incubated for 1 hr by ELISA method
ACHN [7] = assay: Cytotoxic activity against human ACHN bulk cells incubated for 72 hrs by Cell-titer-Glo luminescence assay; type: functional, cell-based
[8] = molecular target: Ribosomal protein S6 kinase (Homo sapiens) (UniProt P51812+Q9UBS0+O75676+Q15349+O75582+P23443+Q9UK32+Q15418); assay: Inhibition of RPS6 kinase phosphorylation in cells (unknown origin) incubated for 6 hrs by Western blot based cell based method
[9] = molecular target: Mitogen-activated protein kinase; ERK1/ERK2 (Homo sapiens) (UniProt P27361+P28482); assay: Inhibition of ERK phosphorylation in cells (unknown origin) incubated for 6 hrs by Western blot based cell based method
Chain of Mitogen-activated protein kinase; ERK1/ERK2 (Homo sapiens) (P27361 whole entry, looked up): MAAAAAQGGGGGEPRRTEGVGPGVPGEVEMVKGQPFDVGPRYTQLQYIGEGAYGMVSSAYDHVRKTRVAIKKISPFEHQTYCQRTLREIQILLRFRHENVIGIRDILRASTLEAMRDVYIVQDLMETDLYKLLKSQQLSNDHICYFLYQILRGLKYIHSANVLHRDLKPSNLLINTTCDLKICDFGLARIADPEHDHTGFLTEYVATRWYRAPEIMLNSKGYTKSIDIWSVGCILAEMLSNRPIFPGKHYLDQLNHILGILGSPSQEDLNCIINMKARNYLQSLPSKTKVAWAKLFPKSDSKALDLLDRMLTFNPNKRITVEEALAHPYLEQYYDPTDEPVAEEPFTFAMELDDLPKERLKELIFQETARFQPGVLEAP
Chain of Mitogen-activated protein kinase; ERK1/ERK2 (Homo sapiens) (P28482 whole entry, looked up): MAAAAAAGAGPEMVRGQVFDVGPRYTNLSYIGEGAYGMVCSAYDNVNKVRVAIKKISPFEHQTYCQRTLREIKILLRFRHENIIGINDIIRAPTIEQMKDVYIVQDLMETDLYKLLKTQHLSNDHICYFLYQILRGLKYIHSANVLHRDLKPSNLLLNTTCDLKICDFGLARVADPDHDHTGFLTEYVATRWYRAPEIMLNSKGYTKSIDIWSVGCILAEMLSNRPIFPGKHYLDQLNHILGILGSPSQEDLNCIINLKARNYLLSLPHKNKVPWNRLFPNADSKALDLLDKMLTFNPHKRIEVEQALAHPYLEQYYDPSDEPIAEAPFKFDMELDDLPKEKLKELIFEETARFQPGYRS

ACHN [10] = assay: Cytotoxic activity against human ACHN cancer stem cells incubated for 72 hrs by Cell-titer-Glo luminescence assay; type: functional, cell-based

SMILES | inhibition [4] | inhibition [6] | also measured
CCN(CC)CCNC(=O)c1c(C)[nH]c(/C=C2\C(=O)Nc3ccc(-c4cnn(-c5ccccc5)c4C)cc32)c1C | 76% | 55% | IC50 (FaDu [1]): 1310 nM; IC50 (FaDu [2]): 2840 nM; IC50 (A549 [3]): 4900 nM; IC50 (A549 [5]): 29200 nM; IC50 (ACHN [7]): 3540 nM
Cc1[nH]c(/C=C2\C(=O)Nc3ccc(-c4csc(-c5ccccc5)n4)cc32)c(C)c1C(=O)NCCO |  |  | inhibition [8]: Active
Cc1[nH]c(/C=C2\C(=O)Nc3ccc(-c4cnn(-c5ccccc5)c4)cc32)c(C)c1C(=O)NCCc1ncc[nH]1 | 25% | -2% | 
CCN(CC)CCNC(=O)c1c(C)[nH]c(/C=C2\C(=O)Nc3ccc(-c4ccnn4-c4ccc(Cl)c(Cl)c4)cc32)c1C | 87% | 18% | 
CCN(CC)CCNC(=O)c1c(C)[nH]c(/C=C2\C(=O)Nc3ccc(-c4ccnn4-c4ccc(F)cc4)cc32)c1C | 104% | 39% | 
Cc1[nH]c(/C=C2\C(=O)Nc3ccc(-c4cnn(-c5ccccc5)c4)cc32)c(C)c1C(=O)N[C@H]1[C@@H]2CNC[C@@H]21 | 134% | 22% | 
CCOC(=O)CCc1ccc(-c2nc(-c3ccc4c(c3)/C(=C/c3[nH]c(C)c(C(=O)NCCN(CC)CC)c3C)C(=O)N4)cs2)cc1 |  |  | IC50 (FaDu [1]): 2520 nM; inhibition [9]: Active
Cc1[nH]c(/C=C2\C(=O)Nc3ccc(-c4cnn(-c5ccccc5)c4)cc32)c(C)c1C(=O)N[C@@H]1CCCNC1 | 130% | 22% | 
Cc1[nH]c(/C=C2\C(=O)Nc3ccc(-c4cnn(-c5ccccc5)c4)cc32)c(C)c1C(=O)NC1CCNCC1 | 140% | 17% | 
CCN(CC)CCNC(=O)c1c(C)[nH]c(/C=C2\C(=O)Nc3ccc(-c4ccnn4-c4cccc(OC)c4)cc32)c1C | 98% | 51% | 
CCN(CC)CCNC(=O)c1c(C)[nH]c(/C=C2\C(=O)Nc3ccc(-c4ccnn4-c4ccncc4)cc32)c1C | 44% | -6% | 
CCN(CC)CCNC(=O)c1c(C)[nH]c(/C=C2\C(=O)Nc3ccc(-c4ccnn4-c4ccccn4)cc32)c1C | 93% | 14% | 
CCN(CC)CCN(C)C(=O)c1c(C)[nH]c(/C=C2\C(=O)Nc3ccc(-c4cnn(-c5ccccc5)c4)cc32)c1C | 113% | 3% | 
CCN(CC)CCNC(=O)c1c(C)[nH]c(/C=C2\C(=O)Nc3ccc(-c4ccnn4-c4ccccc4)cc32)c1C | 100% | 55% | IC50 (FaDu [1]): 3460 nM; IC50 (FaDu [2]): 3010 nM; IC50 (ACHN [10]): 1170 nM; IC50 (A549 [3]): 5540 nM; IC50 (A549 [5]): 2940 nM; IC50 (ACHN [7]): 6570 nM

Continued, in another order:

inhibition [4] | inhibition [6] | SMILES | also measured
95% | 47% | CCN(CC)CCNC(=O)c1c(C)[nH]c(/C=C2\C(=O)Nc3ccc(-c4cnn(-c5cnccn5)c4)cc32)c1C | 
82% | 42% | CCN(CC)CCNC(=O)c1c(C)[nH]c(/C=C2\C(=O)Nc3ccc(-c4cnn(-c5cccnc5)c4)cc32)c1C | 
99% | 4% | CCN(CC)CCNC(=O)c1c(C)[nH]c(/C=C2\C(=O)Nc3ccc(-c4cnn(-c5ccccc5Cl)c4)cc32)c1C | 
71% | 26% | CCN(CC)CCNC(=O)c1c(C)[nH]c(/C=C2\C(=O)Nc3ccc(-c4cnn(-c5ccc(S(N)(=O)=O)cc5)c4)cc32)c1C | 
86% | 36% | CCN(CC)CCNC(=O)c1c(C)[nH]c(/C=C2\C(=O)Nc3ccc(-c4cnn(-c5ccccn5)c4)cc32)c1C | IC50 (FaDu [1]): 50 nM; IC50 (FaDu [2]): 510 nM; IC50 (ACHN [10]): 130 nM; IC50 (A549 [3]): 2530 nM; IC50 (A549 [5]): 1720 nM; IC50 (ACHN [7]): 1240 nM
94% | 45% | CCN(CC)CCNC(=O)c1c(C)[nH]c(/C=C2\C(=O)Nc3ccc(-c4cnn(-c5ccccc5)c4)cc32)c1C | IC50 (FaDu [1]): 600 nM; IC50 (FaDu [2]): 6250 nM; IC50 (A549 [3]): 4830 nM; IC50 (A549 [5]): 5350 nM; IC50 (ACHN [7]): 2280 nM
109% | 40% | CCN(CC)CCNC(=O)c1c(C)[nH]c(/C=C2\C(=O)Nc3ccc(-c4cnn(-c5ccncn5)c4)cc32)c1C | 
